34 compounds from patent US20100120778A1, “QUINOXALINE-BASED LXR MODULATORS” (Wyeth, priority 2008, published 2010) can be followed below.

pIC50: −log10 of the molar value. Some results are limits rather than exact numbers.

The experiment deals with T1, human LXRβ (Homo sapiens, UniProt P55055).
T1 construct: biotin (biotinylated); made in house; host or cells: E. coli
T1 sequence (P55055 1-460): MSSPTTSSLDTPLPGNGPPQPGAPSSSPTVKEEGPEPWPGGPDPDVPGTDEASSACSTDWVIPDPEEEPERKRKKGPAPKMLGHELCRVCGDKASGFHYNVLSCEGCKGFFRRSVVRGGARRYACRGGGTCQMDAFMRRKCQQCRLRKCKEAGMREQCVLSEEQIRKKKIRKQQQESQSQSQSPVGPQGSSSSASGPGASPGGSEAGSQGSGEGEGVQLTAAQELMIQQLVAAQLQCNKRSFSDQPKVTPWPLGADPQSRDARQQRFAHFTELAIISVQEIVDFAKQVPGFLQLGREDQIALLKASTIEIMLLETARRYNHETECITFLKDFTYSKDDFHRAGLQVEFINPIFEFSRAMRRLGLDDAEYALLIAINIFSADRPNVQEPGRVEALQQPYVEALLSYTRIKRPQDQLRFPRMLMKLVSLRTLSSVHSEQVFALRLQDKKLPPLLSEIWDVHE
Nature of the experiment: Ligand-binding test procedure for human LXRβ (3H T0901317 tracer, flash plates). As to conditions: biotinylated hLXRβ, tracer 3H T0901317, +4° C. over night. On the procedure: I. Ligand-Binding Test Procedure for Human LXRβ.
Receptor source: E. coli extracted from cells expressing biotinylated hLXRβ. Extract was made in a similar buffer as above, but with 50 mM TRIS.
Washed streptavidin and coated flash plates with wash buffer. Diluted receptor extract to give Bmax˜4000 cpm and add to the wells. Wrapped the plates in aluminum foil and stored them at +4° C. overnight.
Made a dilution series in DMSO of the test ligands. Made a 5 nM solution of the radioactive tracer in buffer. Mixed 250 μl diluted tracer with 5 μl of the test ligand from each concentration of the dilution series. Washed the receptor-coated flash plates. Added 200 μl per well of the ligand/radiolabel mixture to the receptor-coated flash plates. Wrapped the plates in aluminum foil and incubate at +4° C. over night.
Aspirated wells, and washed the flashed plates. Sealed the plate.
Measured the remaining radioactivity in the plate.

Usually pIC50 stands for the IC50 on a negative log10 scale, so that one unit is a factor of ten. Regarding `CS(=O)(=O)c1cccc(Oc2cccc(-c3cnc4cccc(Cl)c4n3)c2)c1` [Example 13, 8-chloro-2-{3-[3-(methylsulfonyl)phenoxy]phenyl}quinoxaline], the negative logarithm of the IC50 (pIC50) was less than 6.00. The value for `CS(=O)(=O)c1cccc(Oc2cccc(-c3cnc4c(C(F)(F)F)cccc4n3)c2)c1` [Example 14, 2-{3-[3-(methylsulfonyl)phenoxy]phenyl}-5-(trifluoromethyl)quinoxaline] was less than 6.00; that for `CCS(=O)(=O)c1cccc(Oc2ccc(-c3nc4c(C(F)(F)F)cccc4nc3C)cc2)c1` [Example 15, 3-{4-[3-(ethylsulfonyl)phenoxy]phenyl}-2-methyl-5-(trifluoromethyl)quinoxaline] was less than 6.00; that for `CCS(=O)(=O)c1cccc(Oc2cccc(-c3cnc4cccc(C(F)(F)F)c4n3)c2)c1` [Example 16, 2-{3-[3-(ethylsulfonyl)phenoxy]phenyl}-8-(trifluoromethyl)quinoxaline] was less than 6.00. The figure for `CC(C)CS(=O)(=O)c1cccc(Oc2cccc(-c3cnc4cccc(C(F)(F)F)c4n3)c2)c1` [Example 17, 2-{3-[3-(isobutylsulfonyl)phenoxy]phenyl}-8-(trifluoromethyl)quinoxaline] is less than 6.00. The value for `Cc1nc2c(C(F)(F)F)cccc2nc1-c1ccc(-c2ccc(S(C)(=O)=O)cc2)cc1` [Example 18, 3-methyl-2-[4′-(methylsulfonyl)biphenyl-4-yl]-5-(trifluoromethyl)quinoxaline] was less than 6.00. As for `Cc1nc2c(C(F)(F)F)cccc2nc1-c1cccc(-c2cccc(S(C)(=O)=O)c2)c1` [Example 19, 3-methyl-2-[3′-(methylsulfonyl)biphenyl-3-yl]-5-(trifluoromethyl)quinoxaline], the pIC50 was less than 6.00. The figure for `Cc1nc2c(C(F)(F)F)cccc2nc1-c1cccc(-c2ccc(S(C)(=O)=O)cc2)c1` [Example 20, 3-methyl-2-[4′-(methylsulfonyl)biphenyl-3-yl]-5-(trifluoromethyl)quinoxaline] is less than 6.00; for `Cc1nc2c(C(F)(F)F)cccc2nc1-c1ccc(-c2ccccc2S(C)(=O)=O)cc1` [Example 21, 3-methyl-2-[2′-(methylsulfonyl)biphenyl-4-yl]-5-(trifluoromethyl)quinoxaline] it is less than 6.00; for `CS(=O)(=O)c1cccc(-c2ccc(-c3cnc4c(C(F)(F)F)cccc4n3)cc2)c1` [Example 22, 2-[3′-(methylsulfonyl)biphenyl-4-yl]-5-(trifluoromethyl)quinoxaline] it is less than 6.00. `CS(=O)(=O)c1ccc(-c2ccc(-c3cnc4cccc(C(F)(F)F)c4n3)cc2)cc1` [Example 23, 2-[4′-(methylsulfonyl)biphenyl-4-yl]-8-(trifluoromethyl)quinoxaline] showed a pIC50 of less than 6.00. As for `CS(=O)(=O)c1ccccc1-c1ccc(-c2cnc3cccc(C(F)(F)F)c3n2)cc1` [Example 24, 2-[2′-(methylsulfonyl)biphenyl-4-yl]-8-(trifluoromethyl)quinoxaline], the negative logarithm of the IC50 (pIC50) is less than 6.00. With `CS(=O)(=O)c1cccc(-c2ccc(-c3cnc4cccc(C(F)(F)F)c4n3)cc2)c1` [Example 25, 2-[3′-(methylsulfonyl)biphenyl-4-yl]-8-(trifluoromethyl)quinoxaline], the pIC50 is less than 6.00. The value for `CS(=O)(=O)c1cccc(-c2ccc(-c3nc4ccccc4nc3C(F)(F)F)cc2)c1` [Example 26, 2-[3′-(methylsulfonyl)biphenyl-4-yl]-3-(trifluoromethyl)quinoxaline] was less than 6.00; that for `CS(=O)(=O)c1cccc(Oc2ccc(-c3nc4ccccc4nc3C(F)(F)F)cc2)c1` [Example 27, 2-{4-[3-(methylsulfonyl)phenoxy]phenyl}-3-(trifluoromethyl)quinoxaline] was less than 6.00. The value for `Cc1nc2c(C(F)(F)F)cccc2nc1-c1ccc(-c2cccc(S(C)(=O)=O)c2)cc1F` [Example 28, 2-[3-fluoro-3′-(methylsulfonyl)biphenyl-4-yl]-3-methyl-5-(trifluoromethyl)quinoxaline] was less than 6.00; that for `Cc1nc2cccc(C(F)(F)F)c2nc1-c1ccc(Oc2cccc(S(C)(=O)=O)c2)cc1F` [Example 29, 3-{2-fluoro-4-[3-(methylsulfonyl)phenoxy]phenyl}-2-methyl-5-(trifluoromethyl)quinoxaline] was less than 6.00; that for `Cc1nc2c(C(F)(F)F)cccc2nc1-c1ccc(Oc2cccc(S(C)(=O)=O)c2)cc1F` [Example 30, 2-{2-fluoro-4-[3-(methylsulfonyl)phenoxy]phenyl}-3-methyl-5-(trifluoromethyl)quinoxaline] was less than 6.00. The figure for `CS(=O)(=O)c1cccc(-c2ccc(-c3nc4cccc(C(F)(F)F)c4nc3N)cc2)c1` [Example 33, 3-[3′-(methylsulfonyl)biphenyl-4-yl]-8-(trifluoromethyl)quinoxalin-2-amine] is 6.14; for `CCc1nc2cccc(C(F)(F)F)c2nc1-c1ccc(-c2cccc(S(C)(=O)=O)c2)cc1` [Example 34, 2-ethyl-3-[3′-(methylsulfonyl)biphenyl-4-yl]-5-(trifluoromethyl)quinoxaline] it is 6.45. Consider `Cc1nc2c(Cl)ccc(Cl)c2nc1-c1ccc(-c2cccc(S(C)(=O)=O)c2)cc1` [Example 35, 5,8-dichloro-2-methyl-3-[3′-(methylsulfonyl)biphenyl-4-yl]quinoxaline], for which the pIC50 is 7.00. Against the preceding compound, the pIC50 is 0.55 log units higher.

`Cc1nc2cccc(C(F)(F)F)c2nc1-c1cc(Oc2ccc(S(=O)(=O)CC#N)cc2)ccc1Cl` [Example 38, [(4-{4-chloro-3-[3-methyl-8-(trifluoromethyl)quinoxalin-2-yl]phenoxy}phenyl)sulfonyl]-acetonitrile]: the negative-log IC50 (pIC50) was less than 6.00. The figure for `Cc1nc2cccc(C(F)(F)F)c2nc1-c1cc(Oc2ccc(S(C)(=O)=O)cc2)ccc1Cl` [Example 39, 3-{2-chloro-5-[4-(methylsulfonyl)phenoxy]phenyl}-2-methyl-5-(trifluoromethyl)quinoxaline] is less than 6.00. On to `Cc1nc2c(C(F)(F)F)cccc2nc1-c1cc(Oc2cccc(S(C)(=O)=O)c2)ccc1-c1ccccc1` [Example 40, 3-methyl-2-{4-[3-(methylsulfonyl)phenoxy]biphenyl-2-yl}-5-(trifluoromethyl)quinoxaline], for which the pIC50 was less than 6.00.

As to `Cc1nc2c(C(F)(F)F)cccc2nc1-c1cc(Oc2ccc(S(=O)(=O)CC#N)cc2)ccc1Cl` [Example 41, [(4-{4-chloro-3-[3-methyl-5-(trifluoromethyl)quinoxalin-2-yl]phenoxy}phenyl)sulfonyl]-acetonitrile], the negative logarithm of the IC50 (pIC50) was less than 6.00. Turning to `Cc1nc2cccc(C(F)(F)F)c2nc1-c1cc(Oc2ccccc2S(C)(=O)=O)ccc1Cl` [Example 44, 3-{2-chloro-5-[2-(methylsulfonyl)phenoxy]phenyl}-2-methyl-5-(trifluoromethyl)quinoxaline], the pIC50 was less than 6.00. `Cc1nc2c(C(F)(F)F)cccc2nc1-c1cc(Oc2cccc(S(=O)(=O)CCCN)c2)ccc1Cl` [Example 45, 3-[(3-{4-chloro-3-[3-methyl-5-(trifluoromethyl)quinoxalin-2-yl]phenoxy}phenyl)sulfonyl]-propan-1-amine] had a pIC50 of 7.20. Turning to `Cc1nc2cccc(C(F)(F)F)c2nc1-c1ccc(-c2cccc(NS(C)(=O)=O)c2)cc1` [Example 47, N-{4′-[3-methyl-8-(trifluoromethyl)quinoxalin-2-yl]biphenyl-3-yl}methanesulfonamide], the negative-log IC50 (pIC50) is less than 6.00. Compound `CNS(=O)(=O)c1cccc(-c2ccc(-c3nc4c(C(F)(F)F)cccc4nc3C)cc2)c1` [Example 48, N-methyl-4′-[3-methyl-8-(trifluoromethyl)quinoxalin-2-yl]biphenyl-3-sulfonamide] had a pIC50 of 5.96. With `Cc1nc2c(C(F)(F)F)cccc2nc1-c1ccc(-c2cccc(NS(C)(=O)=O)c2)cc1` [Example 49, N-{4′-[3-methyl-5-(trifluoromethyl)quinoxalin-2-yl]biphenyl-3-yl}methanesulfonamide], the pIC50 was less than 6.00. As to `Cc1nc2c(C(F)(F)F)cccc2nc1-c1ccc(-c2cccc(C(N)=O)c2)cc1` [Example 50, 4′-[3-methyl-5-(trifluoromethyl)quinoxalin-2-yl]biphenyl-3-carboxamide], the negative-log IC50 (pIC50) was less than 6.00. Compound `CC(=O)Nc1cccc(-c2ccc(-c3nc4cccc(C(F)(F)F)c4nc3C)cc2)c1` [Example 51, N-{4′-[3-methyl-5-(trifluoromethyl)quinoxalin-2-yl]biphenyl-3-yl}acetamide] gave a pIC50 of less than 6.00.

Compound `CNC(=O)c1cccc(-c2ccc(-c3nc4cccc(C(F)(F)F)c4nc3C)cc2)c1` [Example 52, N-methyl-4′-[3-methyl-5-(trifluoromethyl)quinoxalin-2-yl]biphenyl-3-carboxamide] gave a negative-log IC50 (pIC50) of less than 6.00. In the case of `Cc1nc2c(C(F)(F)F)cccc2nc1-c1ccc(-c2ccc(C(=O)N3CCCC3)cc2)cc1` [Example 54, 3-methyl-2-[4′-(pyrrolidin-1-ylcarbonyl)biphenyl-4-yl]-5-(trifluoromethyl)quinoxaline], the negative-log IC50 (pIC50) is less than 6.00.
